According to patent US11986532B2 (Arvinas Operations, Inc., priority 2021, dated 2024):

Molecular target: T1, BCL6 (Homo sapiens, UniProt P41182)
T1 construct: endogenous in cells; host or cells: T47D breast cancer epithelial cells
Assay: Immunofluorescence protocol for high content imaging of BCL6 (degradation) in T47D cells, 3 days compound treatment
Format: cell-based
Conditions: for Dmax: T47D, read-out: Mean Dmax (%)** category; for DC50: read-out: Mean DC50 (nM)* category
Outline: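 High content immunofluorescence imaging (10×, 4 fields/well) of BCL6 using rabbit primary antibody, Alexa-488 secondary, cell mask and Hoechst nuclear stain after PFA fixation. Before staining, T47D cells (7K/well) were exposed for 3 days at 37° C to 3-fold serial dilutions of compound, top final concentration 0.1 or 1 μM.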

In the case of `CNC(=O)COc1cc2cc(Nc3nc(N4CCN(CC5CCC6(CC5)CN(c5cccc7c5CN(C5CCC(=O)NC5=O)C7=O)C6)CC4)ncc3Cl)ccc2n(C(C)C)c1=O` (stereo not drawn) [Compound 313, 2-{[6-({5-chloro-2-[4-({2-[2-(2,6-dioxopiperidin-3-yl)-1-oxo-2,3-dihydro-1H-isoindol-4-yl]-2-azaspiro[3.5]nonan-7-yl}methyl)piperazin-1-yl]pyrimidin-4-yl}amino)-2-oxo-1-(propan-2-yl)-1,2-dihydroquinolin-3-yl]oxy}-N-methylacetamide], the Dmax is reported as 50 to 70% and the DC50 is reported as < 10 nM.
`CNC(=O)COc1cc2cc(Nc3nc(N4CCN(CC5CCC6(CC5)CN(c5c(F)ccc7c5CN(C5CCC(=O)NC5=O)C7=O)C6)CC4)ncc3Cl)ccc2n(C(C)C)c1=O` (stereo not drawn) [Compound 314, 2-{[6-({5-chloro-2-[4-({2-[2-(2,6-dioxopiperidin-3-yl)-5-fluoro-1-oxo-2,3-dihydro-1H-isoindol-4-yl]-2-azaspiro[3.5]nonan-7-yl}methyl)piperazin-1-yl]pyrimidin-4-yl}amino)-2-oxo-1-(propan-2-yl)-1,2-dihydroquinolin-3-yl]oxy}-N-methylacetamide] was tested, and the Dmax was 50 to 70% and the DC50 was < 10 nM.
In the case of `CNC(=O)COc1cc2cc(Nc3nc(N4CCN(CC5CCC6(CC5)CN(c5cc(F)cc7c5CN(C5CCC(=O)NC5=O)C7=O)C6)CC4)ncc3Cl)ccc2n(C(C)C)c1=O` (stereo not drawn) [Compound 315, 2-{[6-({5-chloro-2-[4-({2-[2-(2,6-dioxopiperidin-3-yl)-6-fluoro-1-oxo-2,3-dihydro-1H-isoindol-4-yl]-2-azaspiro[3.5]nonan-7-yl}methyl)piperazin-1-yl]pyrimidin-4-yl}amino)-2-oxo-1-(propan-2-yl)-1,2-dihydroquinolin-3-yl]oxy}-N-methylacetamide], the Dmax is reported as 50 to 70% and the DC50 is reported as < 10 nM.
`CNC(=O)COc1cc2cc(Nc3nc(N4CCN(CC5CCC6(CC5)CN(c5ccc(F)c7c5CN(C5CCC(=O)NC5=O)C7=O)C6)CC4)ncc3Cl)ccc2n(C(C)C)c1=O` (stereo not drawn) [Compound 316, 2-{[6-({5-chloro-2-[4-({2-[2-(2,6-dioxopiperidin-3-yl)-7-fluoro-1-oxo-2,3-dihydro-1H-isoindol-4-yl]-2-azaspiro[3.5]nonan-7-yl}methyl)piperazin-1-yl]pyrimidin-4-yl}amino)-2-oxo-1-(propan-2-yl)-1,2-dihydroquinolin-3-yl]oxy}-N-methylacetamide] was tested, and the Dmax was 50 to 70% and the DC50 was < 10 nM.
With `CNC(=O)COc1cc2cc(Nc3nc(N4CCC(O[C@H]5C[C@H](N6CC7(CCN7c7cccc8c7CN(C7CCC(=O)NC7=O)C8=O)C6)C5)CC4)ncc3Cl)ccc2n(C(C)C)c1=O` (stereo partly drawn) [Compound 317, 2-({6-[(5-chloro-2-{4-[(1r,3r)-3-{1-[2-(2,6-dioxopiperidin-3-yl)-1-oxo-2,3-dihydro-1H-isoindol-4-yl]-1,6-diazaspiro[3.3]heptan-6-yl}cyclobutoxy]piperidin-1-yl}pyrimidin-4-yl)amino]-2-oxo-1-(propan-2-yl)-1,2-dihydroquinolin-3-yl}oxy)-N-methylacetamide] the Dmax was 50 to 70% and the DC50 was < 10 nM.
For `CNC(=O)COc1cc2cc(Nc3nc(N4CCN(CC5CC6(CCN(c7cc8c(cc7F)C(=O)N(C7CCC(=O)NC7=O)C8)CC6)C5)CC4)ncc3Cl)ccc2n(C(C)C)c1=O` (stereo not drawn) [Compound 318, 2-{[6-({5-chloro-2-[4-({7-[2-(2,6-dioxopiperidin-3-yl)-6-fluoro-1-oxo-2,3-dihydro-1H-isoindol-5-yl]-7-azaspiro[3.5]nonan-2-yl}methyl)piperazin-1-yl]pyrimidin-4-yl}amino)-2-oxo-1-(propan-2-yl)-1,2-dihydroquinolin-3-yl]oxy}-N-methylacetamide], the Dmax was 50 to 70% and the DC50 was < 10 nM.
